{"source": "patent US6693189B2", "about": "“Materials and method for treating or preventing pathogenic fungal infection” (Ariad Gene Therapeutics, Inc., priority 1996, dated 2004)", "key": {"human FKBP12": {"target": "human FKBP12 (Homo sapiens, UniProt P62942)", "sequence (P62942 whole entry)": "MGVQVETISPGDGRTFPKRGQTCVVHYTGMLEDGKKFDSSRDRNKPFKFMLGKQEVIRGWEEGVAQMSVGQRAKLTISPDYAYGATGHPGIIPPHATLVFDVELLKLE", "experiment": "competitive fluorescence polarization (FP) FKBP binding assay", "details": "for fold loss in affinity (cf rapamycin) / fold loss in affinity (vs rapamycin): =IC50/IC50 of rapamycin; for fold loss in affinity (cf rapamycin): C7 rapalogs; for fold loss in affinity (vs rapamycin): C24 oximes"}, "[1]": {"test_system": "Candida albicans clinical isolates", "experiment": "broth macrodilution antifungal assay, C. albicans", "type": "cell-based", "details": "ratio of relative antifungal to relative immunosuppressive activity"}, "[2]": {"test_system": "Cryptococcus neoformans clinical isolates", "experiment": "broth macrodilution antifungal assay, Cryptococcus neoformans", "type": "cell-based", "details": "ratio of relative antifungal to relative immunosuppressive activity"}, "[3]": {"test_system": "Aspergillus fumigatus clinical isolates", "experiment": "broth macrodilution antifungal assay, Aspergillus fumigatus", "type": "cell-based", "details": "III = Asp fumigatus; ratio of relative antifungal to relative immunosuppressive activity"}, "[4]": {"details": "read-out: FKBP wt FP binding assay IC50, rapamycin C24 oximes, competition with fluoresceinated FK506 probe AP1491"}}, "note": "Where two headings read alike, the source gives them in different places."}
{"smiles": "CCOC1C[C@@H]2CC[C@@H](C)[C@@](O)(O2)C(=O)C(=O)N2CCCC[C@H]2C(=O)O[C@H]([C@H](C)C[C@@H]2CC[C@@H](O)[C@H](OC)C2)CC(=O)[C@H](C)/C=C(\\C)[C@@H](O)[C@@H](OC)C(=O)[C@H](C)C[C@H](C)/C=C/C=C/C=C/1C", "note": "(stereo partly drawn) [Compound 27]", "values": [{"measurement": "fold loss in affinity (cf rapamycin)", "setting": "human FKBP12", "result": 1.1}]}
{"smiles": "CCON=C1CC(C(C)CC2CCC(O)C(OC)C2)OC(=O)C2CCCCN2C(=O)C(=O)C2(O)OC(CCC2C)CC(OC)C(C)=CC=CC=CC(C)CC(C)C(=O)C(OC)C(O)C(C)=CC1C", "note": "(stereo not drawn) [Compound 7, Rapamycin (E and Z)-24-(O-ethyloxime)]", "values": [{"measurement": "fold loss in affinity (vs rapamycin)", "setting": "human FKBP12", "result": 1287}, {"measurement": "IC50", "setting": "human FKBP12; [4]", "result": 2.96, "unit": "µM"}]}
{"smiles": "CO[C@H]1C[C@@H]2CC[C@@H](C)[C@@](O)(O2)C(=O)C(=O)N2CCCC[C@H]2C(=O)O[C@H]([C@H](C)C[C@@H]2CC[C@@H](O)[C@H](OC)C2)C/C(=N/OCc2ccccc2)[C@H](C)/C=C(\\C)[C@@H](O)[C@@H](OC)C(=O)[C@H](C)C[C@H](C)/C=C/C=C/C=C/1C", "note": "[Compound 11, Rapamycin (E and Z)-24-(O-benzyloxime)]", "values": [{"measurement": "IC50", "setting": "human FKBP12", "result": 8.34, "unit": "µM"}, {"measurement": "fold loss in affinity (vs rapamycin)", "setting": "human FKBP12", "result": 3627}]}
{"smiles": "COC1CC(CC(C)C2CC(=O)C(C)C=C(C)C(O)C(OC)C(=O)C(C)CC(C)C=CC=CC=C(C)C(c3ccc(C)s3)CC3CCC(C)C(O)(O3)C(=O)C(=O)N3CCCCC3C(=O)O2)CCC1O", "note": "(stereo not drawn) [Compound 37]", "values": [{"measurement": "fold loss in affinity (cf rapamycin)", "setting": "human FKBP12", "result": 1.9}]}
{"smiles": "CO[C@H]1C[C@@H]2CC[C@@H](C)[C@@](O)(O2)C(=O)C(=O)N2CCCC[C@H]2C(=O)O[C@H]([C@H](C)C[C@@H]2CC[C@@H](O)[C@H](OC)C2)CC(=O)[C@H](C)/C=C(\\C)[C@@H](O)[C@@H](OC)C(=O)[C@H](C)C[C@H](C)/C=C/C=C/C=C/1C", "note": "[rapamycin, Rapamycin]", "values": [{"measurement": "AF/IS I", "setting": "[1]", "result": 1}, {"measurement": "AF/IS II", "setting": "[2]", "result": 1}, {"measurement": "AF/IS III", "setting": "[3]", "result": 1}]}
{"smiles": "CCOC1C[C@@H]2CC[C@@H](C)[C@@](O)(O2)C(=O)C(=O)N2CCCC[C@H]2C(=O)O[C@H]([C@H](C)C[C@@H]2CC[C@@H](O)[C@H](OC)C2)CC(=O)[C@H](C)/C=C(\\C)[C@@H](O)[C@@H](OC)C(=O)[C@H](C)C[C@H](C)/C=C/C=C/C=C/1C", "note": "(stereo partly drawn) [Compound 28]", "values": [{"measurement": "fold loss in affinity (cf rapamycin)", "setting": "human FKBP12", "result": 1.6}]}
{"smiles": "COC1CC2CCC(C)C(O)(O2)C(=O)C(=O)N2CCCCC2C(=O)OC(C(C)CC2CCC(O)C(OC)C2)CC(=NOCc2ccccc2)C(C)C=C(C)C(O)C(OC)C(=O)C(C)CC(C)C=CC=CC=C1C", "note": "(stereo not drawn) [Compound 12, Rapamycin (E and Z)-24-(O-benzyloxime)]", "values": [{"measurement": "fold loss in affinity (vs rapamycin)", "setting": "human FKBP12", "result": 616}, {"measurement": "IC50", "setting": "human FKBP12; [4]", "result": 1.42, "unit": "µM"}]}
{"smiles": "COC1CC2CCC(C)C(O)(O2)C(=O)C(=O)N2CCCCC2C(=O)OC(C(C)CC2CCC(O)C(OC)C2)CC(=NOC(C)(C)C)C(C)C=C(C)C(O)C(OC)C(=O)C(C)CC(C)C=CC=CC=C1C", "note": "(stereo not drawn) [Compound 19]", "values": [{"measurement": "fold loss in affinity (vs rapamycin)", "setting": "human FKBP12", "result": ">13043"}, {"measurement": "IC50", "setting": "human FKBP12; [4]", "result": "> 30", "unit": "µM"}]}
{"smiles": "COC1CC(CC(C)C2CC(=O)C(C)C=C(C)C(O)C(OC)C(=O)C(C)CC(C)C=CC=CC=C(C)C(c3ccc(C)s3)CC3CCC(C)C(O)(O3)C(=O)C(=O)N3CCCCC3C(=O)O2)CCC1O", "note": "(stereo not drawn) [Compound 36]", "values": [{"measurement": "fold loss in affinity (cf rapamycin)", "setting": "human FKBP12", "result": 1.6}]}
